{
  "source": "patent EP3603649A1",
  "about": "(priority 2018, dated 2020)",
  "biological_target": "PrP^res (Homo sapiens, UniProt P04156)",
  "format": "cell-based",
  "data": [
    {"compound": "COC[C@H]1O[C@@H]2O[C@H]3[C@H](O)[C@@H](OC)[C@@H](O[C@H]4[C@H](O)[C@@H](OC)[C@@H](O[C@H]5[C@H](O)[C@@H](OC)[C@@H](O[C@H]6[C@H](O)[C@@H](OC)[C@@H](O[C@H]7[C@H](O)[C@@H](OC)[C@@H](O[C@H]8[C@H](O)[C@@H](OC)[C@@H](O[C@H]1[C@H](O)[C@H]2OC)O[C@@H]8COC)O[C@@H]7COC)O[C@@H]6COC)O[C@@H]5COC)O[C@@H]4COC)O[C@@H]3COC", "note": "[DIMEB, heptakis(2,6-O-dimethyl)beta-cyclodextrin]", "values": [
      {"measurement": "PrP^Sc accumulation", "result": "significantly decreased"}
    ]}
  ]
}
